From patent publication US12409206B2, “Use of cyclosporine analogues for treating fibrosis” (Hepion Pharmaceuticals, Inc., priority 2020, dated 2025)

Key:
[1] = tested on: Human Lung Fibroblasts from a Patient with Idiopathic Pulmonary Fibrosis (IPF); experiment: Cell viability analysis, IPF lung fibroblast culture; format: cell-based; conditions: end of treatment (6 days)
Procedure: (§1) Human Lung Fibroblasts from a Patient with Idiopathic Pulmonary Fibrosis (IPF) (Lonza Bioscience, Cat. #CC-7231) were cultured in 96-well plates. Treatments were applied in triplicate wells (applied 100 ul treatments per well) for 6 days. Cells were near confluence at the start of treatments. […] Spent culture medium collected at the end of the treatments was assayed for procollagen and fibronectin by enzyme-linked immunosorbent assays (ELISA) (Procollagen ELISA antibody pair (ab216064) and fibronectin ELISA antibody pair (ab222262) from Abcam). Procollagen and fibronectin were not detected in medium not applied to cells. Procollagen and fibronectin levels in the medium are represented by means±SD (bars) from 3 replicate wells (open circles).

[2] = tested on: Human LX-2 Hepatic Stellate Cells; experiment: Cell viability analysis, LX-2 culture; format: cell-based; conditions: end of treatment (24 hours)
Procedure: as §1, with “LX-2 Hepatic Stellate Cells (Millipore-Sigma,” for “Lung Fibroblasts from a Patient with Idiopathic Pulmonary Fibrosis (IPF) (Lonza Bioscience,”, “#SCC064)” for “#CC-7231)”, “24 hours.” for “6 days.”

[3] = tested on: five different types of fibroblasts; experiment: ECM production (procollagen, fibronectin ELISA), summary over five types of fibroblasts; format: cell-based, Human; conditions: dose-dependent; at clinically relevant concentrations
Text: In the present example, five different types of fibroblasts, including (1) lung fibroblasts from a patient with idiopathic pulmonary fibrosis (“IPF”), (2) cardiac fibroblasts, (3) dermal (skin) fibroblasts, (4) renal mesangial cells, and (5) the LX2 hepatic stellate cell line, were used to determine the ability of CRV431 in decreasing production of the ECM molecules, collagen and fibronectin.
The extent of inhibition was similar whether or not the cells were stimulated with the profibrotic agent, transforming growth factor-beta (TGFβ), consistent with direct effects on ECM synthesis.

[4] = tested on: Human cardiac fibroblasts; experiment: Procollagen and fibronectin ELISA of spent medium, cardiac fibroblast culture; format: cell-based; conditions: 6 days, both in the absence or presence of 0.4 ng/ml TGFβ
Procedure: as §1, with “cardiac fibroblasts” for “Lung Fibroblasts from a Patient with Idiopathic Pulmonary Fibrosis (IPF)”, “#CC-2903)” for “#CC-7231)”, “of” for “of the”

hepatitis C = conditions: preclinical studies; cited from earlier work
[5] = tested on: five different types of fibroblasts; experiment: Cell viability, summary over five types of fibroblasts; format: cell-based, Human; conditions: at clinically relevant concentrations
[6] = tested on: human precision cut IPF lung slices; experiment: Secreted markers (ELISA) in precision cut IPF lung slices in culture; format: cell-based; conditions: CRV431 applied at 5 μM; 4 daily treatment intervals; relative to DMSO vehicle
Procedure: This example describes a study conducted with precision cut lung slices. Precision cut slices from explanted lung tissue from a patient with biopsy-confirmed, idiopathic pulmonary fibrosis (IPF) were cultured for 6 days. Treatments were applied to 6 replicate slices per treatment on Day 2 of culture and replaced daily on Days 3, 4, and 5 of culture.
For generating the results of secreted marker (% daily average change) shown in FIG. 6A, spent medium (24-hr intervals) was collected on Days 3, 4, 5, and 6 to measure secretion by ELISA of six markers of inflammation and fibrosis: monocyte chemoattractant protein (MCP-1), interleukin-6 (IL-6), matrix metalloproteinase-7 (MMP-7), tissue inhibitor of metalloproteinase-1 (TIMP1), hyaluronic acid, and collagen 1α1. The mean level of secretion from 6 replicate slices for each drug treatment was expressed as a percentage change relative to DMSO vehicle treatment for each day of treatment, and then the mean percentage change from 4 daily treatment intervals was calculated.

HIV = conditions: preclinical studies; cited from earlier work
[7] = tested on: Human adult dermal fibroblasts; experiment: Cell viability analysis, dermal fibroblast culture; format: cell-based; conditions: end of 4 days of treatment (so in the source)
[8] = tested on: Human renal mesangial cells; experiment: Cell viability analysis, renal mesangial cell culture; format: cell-based; conditions: end of 4 days of treatment
Procedure: as §1, with “Human renal mesangial cells (ScienCell,” for “Human Lung Fibroblasts from a Patient with Idiopathic Pulmonary Fibrosis (IPF) (Lonza Bioscience,”, “Cat. #4200 (SC))” for “Cat. #CC-7231)”, “for 2 days, then re-applied for an additional 2” for “for 6”, “collected from Day 2-4” for “collected at the end”, “of treatment” for “of the treatments”

[9] = tested on: Human cardiac fibroblasts; experiment: Cell viability analysis, cardiac fibroblast culture; format: cell-based; conditions: end of treatment (6 days)
Procedure: as §1, with “cardiac fibroblasts” for “Lung Fibroblasts from a Patient with Idiopathic Pulmonary Fibrosis (IPF)”, “#CC-2903)” for “#CC-7231)”, “of” for “of the”

[10] = tested on: Human LX-2 Hepatic Stellate Cells; experiment: Procollagen and fibronectin ELISA of spent medium, LX-2 culture; format: cell-based; conditions: 24 hours, both in the absence or presence of 0.1 ng/ml TGFβ
Procedure: as §1, with “LX-2 Hepatic Stellate Cells (Millipore-Sigma,” for “Lung Fibroblasts from a Patient with Idiopathic Pulmonary Fibrosis (IPF) (Lonza Bioscience,”, “#SCC064)” for “#CC-7231)”, “24 hours.” for “6 days.”

CC[C@@H]1NC(=O)[C@H]([C@H](O)[C@H](C)CCCCCCNC(C)=O)N(C)C(=O)[C@H](C(C)C)N(C)C(=O)[C@H](CC(C)C)N(C)C(=O)[C@H](CC(C)C)N(C)C(=O)[C@@H](C)NC(=O)[C@H](C)NC(=O)[C@H](CC(C)C)N(C)C(=O)[C@H](C(C)C)NC(=O)[C@H](CC(C)C)N(C)C(=O)[C@@H](C)N(C)C1=O [CRV431]
cell viability [1]: none of the CRV431 treatments affected cell viability | cell viability [2]: none of the CRV431 treatments affected cell viability | decrease of ECM production [3]: up to 55% | abundance of fibronectin in the medium [4]: dose-dependently decreased | abundance of procollagen in the medium [4]: dose-dependently decreased | anti-viral activity (hepatitis C): shows anti-viral activity | cell viability [5]: without causing any reduction in cell viability | mean daily secretion of all markers (MCP-1, IL-6, MMP-7, TIMP1, hyaluronic acid, collagen 1α1) [6]: decreased | anti-viral activity (HIV): shows anti-viral activity | cell viability [7]: none of the CRV431 treatments affected cell viability | cell viability [8]: none of the CRV431 treatments affected cell viability | cell viability [9]: none of the CRV431 treatments affected cell viability | abundance of fibronectin in the medium [10]: dose-dependently decreased | abundance of procollagen in the medium [10]: dose-dependently decreased
